Measurements reported in US10865384B2, “2,4,5-tri-substituted azole-based casein kinase 1 inhibitors as inducers for cardiomyogenesis” (AGENCY FOR SCIENCE, TECHNOLOGY AND RESEARCH, priority 2014, dated 2020).

Test system: hESC3 Nkx2.5eGFP/w cells
Test: Differentiation in 96-U bottom ultra-low attachment well plates, GFP area imaging
Assay type: cell-based, human
Details: 5 μM; for Cardiogenic properties: at specific time course (induction day 2 or 3); for Average GFP %: after CHIR99021, read on day 14, GFP area over embryoid body size; for Average GFP μm^2 / Average Area μm^2: day 14; for Average Area μm^2: embryoid body size

| Structure (SMILES) | Cardiogenic properties | Average GFP % (Induction Day 2) | Average GFP μm^2 (Induction Day 2) | Average Area μm^2 (Induction Day 2) | Average GFP % (Induction Day 3) | Average GFP μm^2 (Induction Day 3) | Average Area μm^2 (Induction Day 3) |
| --- | --- | --- | --- | --- | --- | --- | --- |
| Fc1ccc(-c2nc(-c3c(F)cccc3Cl)[nH]c2-c2ccncc2)cc1 [ZQX-19, 4-[2-(2-chloro-6-fluorophenyl)-4(5)-(4-fluorophenyl)-1H-imidazol-5(4)-yl]pyridine] | higher cardiogenic properties as SB203580 and IWP-2 | 2.4% | 46.4 μm^2 | 903.3 μm^2 | 32.7% | 511.6 μm^2 | 1616.9 μm^2 |
| COc1cccc(F)c1-c1nc(-c2ccc(F)cc2)c(-c2ccncc2)[nH]1 [ZQX-20, 4-[2-(2-fluoro-6-methoxyphenyl)-4(5)-(4-fluorophenyl)-1H-imidazol-5(4)-yl]pyridine] | higher cardiogenic properties as SB203580 and IWP-2 | 26.0% | 286.8 μm^2 | 1145.3 μm^2 | 37.3% | 331.1 μm^2 | 996.2 μm^2 |
| Fc1ccc(-c2nc(-c3c(F)cccc3Br)[nH]c2-c2ccncc2)cc1 [ZQX-21, 4-[2-(2-bromo-6-fluorophenyl)-4(5)-(4-fluorophenyl)-1H-imidazol-5(4)-yl]pyridine] | – | 0.0% | 0.0 μm^2 | 1383.8 μm^2 | 3.4% | 16.9 μm^2 | 974.3 μm^2 |
| Fc1ccc(-c2nc(-c3ccccc3Br)[nH]c2-c2ccncc2)cc1 [ZQX-22, 4-[2-(2-bromophenyl)-4(5)-(4-fluorophenyl)-1H-imidazol-5(4)-yl]pyridine] | – | 26.2% | 166.5 μm^2 | 623.0 μm^2 | 24.4% | 284.4 μm^2 | 1165.0 μm^2 |
| O=[N+]([O-])c1cccc(Cl)c1-c1nc(-c2ccc(F)cc2)c(-c2ccncc2)[nH]1 [ZQX-25, 4-[2-(2-chloro-6-nitrophenyl)-4(5)-(4-fluorophenyl)-1H-imidazol-5(4)-yl]pyridine] | – | 0.0% | 0.0 μm^2 | 544.3 μm^2 | 15.6% | 163.6 μm^2 | 1105.4 μm^2 |
| COc1cc(O)c(-c2nc(-c3ccc(F)cc3)c(-c3ccncc3)[nH]2)c(OC)c1 [ZQX-26, 2-[4(5)-(4-fluorophenyl)-5(4)-(pyridin-4-yl)-1H-imidazol-2-yl]-3,5-dimethoxyphenol] | – | 30.9% | 233.9 μm^2 | 757.8 μm^2 | 8.3% | 88.2 μm^2 | 1152.7 μm^2 |
| O=[N+]([O-])c1ccccc1-c1nc(-c2ccc(F)cc2)c(-c2ccncc2)[nH]1 [ZQX-27, 4-[4(5)-(4-fluorophenyl)-2-(2-nitrophenyl)-1H-imidazol-5(4)-yl]pyridine] | – | 15.1% | 258.6 μm^2 | 1469.4 μm^2 | 3.4% | 57.9 μm^2 | 1758.3 μm^2 |
| Cc1cccc(C)c1-c1nc(-c2ccc(F)cc2)c(-c2ccncc2)[nH]1 [ZQX-28, 4-[2-(2,6-dimethylphenyl)-4(5)-(4-fluorophenyl)-1H-imidazol-5(4)-yl]pyridine] | – | 0.0% | 0.0 μm^2 | 302.4 μm^2 | 2.1% | 6.1 μm^2 | 271.7 μm^2 |
| Cc1ccccc1-c1nc(-c2ccc(F)cc2)c(-c2ccncc2)[nH]1 [ZQX-29, 4-[4(5)-(4-fluorophenyl)-2-(2-methylphenyl)-1H-imidazol-5(4)-yl]pyridine] | – | 28.6% | 277.1 μm^2 | 876.4 μm^2 | 2.7% | 39.9 μm^2 | 1296.6 μm^2 |
| Fc1ccc(-c2nc(-c3c(F)cccc3I)[nH]c2-c2ccncc2)cc1 [ZQX-30, 4-[2-(2-fluoro-6-iodophenyl)-4(5)-(4-fluorophenyl)-1H-imidazol-5(4)-yl]pyridine] | – | 4.6% | 60.9 μm^2 | 1361.8 μm^2 | 12.6% | 128.3 μm^2 | 1142.4 μm^2 |
| Nc1ccccc1-c1nc(-c2ccc(F)cc2)c(-c2ccncc2)[nH]1 [ZQX-31, 4-[2-(2-aminophenyl)-4(5)-(4-fluorophenyl)-1H-imidazol-5(4)-yl]pyridine] | – | 28.9% | 258.3 μm^2 | 891.2 μm^2 | 5.1% | 96.0 μm^2 | 1662.3 μm^2 |
| COc1ccc([N+](=O)[O-])cc1-c1nc(-c2ccc(F)cc2)c(-c2ccncc2)[nH]1 [ZQX-32, 4-[2-(2-methoxy-5-nitrophenyl)-4(5)-(4-fluorophenyl)-1H-imidazol-5(4)-yl]pyridine] | – | 32.8% | 157.6 μm^2 | 483.6 μm^2 | 4.6% | 41.0 μm^2 | 790.4 μm^2 |
